Test results taken from patent US20250170248A1, “SMARCA DEGRADERS AND USES THEREOF” (Kymera Therapeutics, Inc., priority 2021, published 2025).

Tests used:
Assay type in all cases: cell-based
[1] = target: T1, SMARCA4 (Homo sapiens, UniProt P51532); assay: SMARCA4 Western blot degradation in MV4-11 cells; details: 24 h; for Dmax: MV4-11, MV4-11 cells, read-out: SMARCA4 MSD MV411 degradation 24 h: average Dmax %; for DC50: MV4-11 cells, read-out: SMARCA4 MSD MV411 degradation 24 h: Mean external-Abs DC50
T1 construct: SMARCA2/SMARCA4 protein degradation selectivity in MV4-11 cells; endogenous in cells; host or cells: MV4-11
T1 sequence (P51532 whole entry): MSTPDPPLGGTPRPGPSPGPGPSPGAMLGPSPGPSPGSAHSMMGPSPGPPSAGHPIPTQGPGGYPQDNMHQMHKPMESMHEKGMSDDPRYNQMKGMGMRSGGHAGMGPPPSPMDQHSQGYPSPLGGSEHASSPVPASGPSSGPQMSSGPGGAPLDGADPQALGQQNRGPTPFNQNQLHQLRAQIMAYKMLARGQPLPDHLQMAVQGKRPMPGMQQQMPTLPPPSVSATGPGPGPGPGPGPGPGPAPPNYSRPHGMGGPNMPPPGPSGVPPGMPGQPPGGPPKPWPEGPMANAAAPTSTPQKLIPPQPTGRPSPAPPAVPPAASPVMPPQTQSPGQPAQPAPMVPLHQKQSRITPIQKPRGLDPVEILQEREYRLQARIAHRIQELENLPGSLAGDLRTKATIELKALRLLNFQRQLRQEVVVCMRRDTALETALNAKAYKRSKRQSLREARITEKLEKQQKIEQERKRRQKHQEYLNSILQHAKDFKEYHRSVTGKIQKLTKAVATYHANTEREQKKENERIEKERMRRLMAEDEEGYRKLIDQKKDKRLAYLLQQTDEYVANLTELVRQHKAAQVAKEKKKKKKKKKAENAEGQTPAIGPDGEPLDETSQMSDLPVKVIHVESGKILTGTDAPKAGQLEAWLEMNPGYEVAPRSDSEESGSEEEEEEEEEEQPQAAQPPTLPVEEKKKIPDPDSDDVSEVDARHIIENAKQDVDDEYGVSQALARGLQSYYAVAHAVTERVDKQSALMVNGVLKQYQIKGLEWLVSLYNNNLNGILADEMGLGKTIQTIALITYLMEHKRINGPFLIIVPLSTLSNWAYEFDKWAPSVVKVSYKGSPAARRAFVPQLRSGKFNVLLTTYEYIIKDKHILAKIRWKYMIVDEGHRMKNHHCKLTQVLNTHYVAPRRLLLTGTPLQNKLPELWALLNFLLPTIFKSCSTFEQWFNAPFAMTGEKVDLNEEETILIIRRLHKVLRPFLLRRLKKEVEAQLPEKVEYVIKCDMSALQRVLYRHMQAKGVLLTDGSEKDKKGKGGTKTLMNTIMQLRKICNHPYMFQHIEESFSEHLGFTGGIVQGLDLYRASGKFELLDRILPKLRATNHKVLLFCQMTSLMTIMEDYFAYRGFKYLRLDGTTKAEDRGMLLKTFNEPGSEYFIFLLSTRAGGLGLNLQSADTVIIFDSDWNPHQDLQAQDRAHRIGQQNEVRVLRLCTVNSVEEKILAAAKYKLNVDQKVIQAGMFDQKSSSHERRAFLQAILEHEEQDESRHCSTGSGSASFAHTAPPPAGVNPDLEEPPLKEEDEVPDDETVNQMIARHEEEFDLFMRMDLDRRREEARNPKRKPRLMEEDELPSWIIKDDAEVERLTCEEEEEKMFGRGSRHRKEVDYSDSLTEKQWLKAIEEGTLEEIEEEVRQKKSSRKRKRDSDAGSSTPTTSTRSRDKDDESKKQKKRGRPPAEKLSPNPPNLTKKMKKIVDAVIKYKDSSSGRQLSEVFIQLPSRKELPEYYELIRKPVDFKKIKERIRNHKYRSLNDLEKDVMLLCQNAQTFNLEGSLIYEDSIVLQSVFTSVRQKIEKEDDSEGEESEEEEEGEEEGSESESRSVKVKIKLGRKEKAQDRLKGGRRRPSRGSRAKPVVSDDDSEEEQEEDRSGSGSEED
Procedure, shortened: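 24 h compound exposure, MV4-11; RIPA lysates → SDS-PAGE → NC membrane; anti-SMARCA2/BRM, anti-BRG1, β-actin loading control; LI-COR fluorescence read. DC50 and Dmax at 24 h reported as letter bins.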

[2] = target: T2, SMARCA2 (Homo sapiens, UniProt P51531); assay: SMARCA2 Western blot degradation in MV4-11 cells; design: SMARCA2/SMARCA4 protein degradation selectivity in MV4-11 cells; endogenous in cells; host or cells: MV4-11; details: for Dmax: MV4-11, MV4-11 cells, read-out: SMARCA2 MSD MV411 degradation 24 h: average Dmax %; for Dmax / DC50: 24 h; for DC50 / Selectivity in MV411: MV4-11 cells; for DC50: read-out: SMARCA2 MSD MV411 degradation 24 h: Mean external-Abs DC50; for Selectivity in MV411: SMARCA2/4 selectivity
T2 sequence (P51531 whole entry): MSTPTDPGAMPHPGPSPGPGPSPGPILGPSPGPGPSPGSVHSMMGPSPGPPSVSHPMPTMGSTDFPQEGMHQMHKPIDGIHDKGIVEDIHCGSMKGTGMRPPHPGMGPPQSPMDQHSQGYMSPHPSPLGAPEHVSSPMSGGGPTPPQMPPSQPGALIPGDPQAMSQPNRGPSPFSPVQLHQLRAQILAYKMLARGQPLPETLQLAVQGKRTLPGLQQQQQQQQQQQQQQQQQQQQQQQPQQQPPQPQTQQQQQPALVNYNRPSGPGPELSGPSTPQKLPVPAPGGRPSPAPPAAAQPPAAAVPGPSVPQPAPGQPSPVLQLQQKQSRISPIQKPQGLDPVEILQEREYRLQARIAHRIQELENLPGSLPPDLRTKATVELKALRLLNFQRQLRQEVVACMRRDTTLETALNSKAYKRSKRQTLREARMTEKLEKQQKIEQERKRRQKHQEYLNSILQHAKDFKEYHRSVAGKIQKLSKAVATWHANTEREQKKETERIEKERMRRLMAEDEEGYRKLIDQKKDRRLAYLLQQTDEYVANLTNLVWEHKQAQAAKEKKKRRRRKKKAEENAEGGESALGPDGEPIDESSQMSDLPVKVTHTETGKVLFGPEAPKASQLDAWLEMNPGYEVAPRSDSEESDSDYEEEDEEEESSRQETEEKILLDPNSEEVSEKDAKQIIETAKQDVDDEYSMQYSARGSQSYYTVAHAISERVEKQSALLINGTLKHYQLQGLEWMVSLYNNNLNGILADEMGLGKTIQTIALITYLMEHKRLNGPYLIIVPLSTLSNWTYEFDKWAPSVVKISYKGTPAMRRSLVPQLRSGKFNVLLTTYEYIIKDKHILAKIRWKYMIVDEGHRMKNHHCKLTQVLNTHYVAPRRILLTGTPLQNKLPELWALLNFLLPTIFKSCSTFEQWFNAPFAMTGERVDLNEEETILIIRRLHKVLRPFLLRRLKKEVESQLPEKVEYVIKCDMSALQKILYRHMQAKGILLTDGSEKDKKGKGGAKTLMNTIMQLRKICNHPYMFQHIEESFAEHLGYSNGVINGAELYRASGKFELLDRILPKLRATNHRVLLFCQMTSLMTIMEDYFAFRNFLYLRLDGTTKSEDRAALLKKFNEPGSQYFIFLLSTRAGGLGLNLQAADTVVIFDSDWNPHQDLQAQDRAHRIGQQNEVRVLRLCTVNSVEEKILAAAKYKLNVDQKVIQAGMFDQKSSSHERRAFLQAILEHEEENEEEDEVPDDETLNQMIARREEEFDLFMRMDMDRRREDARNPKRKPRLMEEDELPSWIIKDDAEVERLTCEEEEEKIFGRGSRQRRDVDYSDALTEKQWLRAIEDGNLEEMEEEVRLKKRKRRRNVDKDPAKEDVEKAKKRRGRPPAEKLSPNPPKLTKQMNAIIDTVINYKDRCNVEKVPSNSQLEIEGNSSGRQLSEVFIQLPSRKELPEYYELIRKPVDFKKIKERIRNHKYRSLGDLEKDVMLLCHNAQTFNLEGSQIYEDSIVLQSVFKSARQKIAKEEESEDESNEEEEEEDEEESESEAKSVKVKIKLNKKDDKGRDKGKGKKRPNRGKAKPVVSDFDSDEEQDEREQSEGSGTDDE

[3] = target: T2, SMARCA2; assay: MSD SMARCA2 degradation in A549 cell line; details: 24 h; for Dmax: A549, A549 cells; for DC50: A549 cells, read-out: SMARCA2 MSD A549 degradation 24 h: Average external-Abs DC50
Procedure, shortened: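 A549 cells treated 24 h with compound, 3-fold series from 1000 nM. Lysates captured on MSD plates and SMARCA2 quantified with anti-SMARCA2 and SULFO-TAG secondary antibodies (electrochemiluminescence). DC50 and Dmax (% degradation at 24 h) reported as letter bins.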

| Dmax [1] [%] | DC50 [1] [nM] | Dmax [2] [%] | DC50 [2] [nM] | Selectivity in MV411 [2] | Dmax [3] [%] | DC50 [3] [nM] | SMILES |
| --- | --- | --- | --- | --- | --- | --- | --- |
| > 90 | > 100 | 70 to 90 | 1 to 10 | C (C (10-100 fold)) | > 90 | 10 to 50 | C#Cc1c(F)cc(CNC(=O)[C@@H]2C[C@@H](O)CN2C(=O)[C@@H](NC(=O)N2CC3(CC(N4CCC(c5cnc(N6CCc7[nH]c8nnc(-c9ccccc9O)cc8c7[C@H]6C)nc5)CC4)C3)C2)C(C)(C)C)cc1F [I-402] |
| 70 to 90 | > 100 | 70 to 90 | 10 to 100 | C (C (10-100 fold)) | > 90 | 10 to 50 | C#Cc1cc(F)c(CNC(=O)[C@@H]2C[C@@H](O)CN2C(=O)[C@@H](NC(=O)N2CC3(CC(N4CCC(c5cnc(N6CCc7[nH]c8nnc(-c9ccccc9O)cc8c7[C@H]6C)nc5)CC4)C3)C2)C(C)(C)C)cc1F [I-403] |
| 70 to 90 | > 100 | 70 to 90 | 1 to 10 | C (C (10-100 fold)) | > 90 | 10 to 50 | C#Cc1ccc(CNC(=O)[C@@H]2C[C@@H](O)CN2C(=O)[C@@H](NC(=O)N2CC3(CC(CN4CCC(c5cnc(N6CCc7[nH]c8nnc(-c9ccccc9O)cc8c7[C@H]6C)nc5)CC4)C3)C2)C(C)(C)C)cc1 [I-410] |
| > 90 | 10 to 100 | > 90 | 1 to 10 | C (C (10-100 fold)) | > 90 | 10 to 50 | C#Cc1ccc(CNC(=O)[C@@H]2C[C@@H](O)CN2C(=O)[C@@H](NC(=O)N2CC3(CC(CCN4CCC(c5cnc(N6CCc7[nH]c8nnc(-c9ccccc9O)cc8c7[C@H]6C)nc5)CC4)C3)C2)C(C)(C)C)cc1 [I-416] |
